Laboratory results as given in PubChem BioAssay AID238 (DTP/NCI, 2004).
Where “and” joins values, the source holds several entries; their conditions need not be identical. Equal values may be shown once. Toxic doses and inconclusive results are not listed. The calls were made as follows: active = survival T/C of 150% or more; inactive = T/C below 125% in these data.

Tested on: CAF1 mice, leiomyosarcoma No.2 ip, survival T/C%
Assay: NCI In Vivo Anticancer Drug Screen. Data for tumor model Leiomyosarcoma (No. 2) (intraperitoneal) in CAF1 mice
Conditions: endpoint: mean survival time, higher = longer survival
Method: The antitumor activity of compounds was measured in mice bearing transplantable tumors. Survival or tumor size were measured and the results are expressed as the measurement made in the treated group (T) divided by the measurement made in the vehicle treated control group (C). The tumor model used in this assay is Leiomyosarcoma (No. 2) (intraperitoneal) in CAF1 mice

[1] = dose: 0.25 mg/kg/injection, schedule: Q01DX010 (ip), vehicle: saline
[2] = dose: 0.5 mg/kg/injection, schedule: Q01DX010 (ip), vehicle: saline
[3] = dose: 3.13 mg/kg/injection, schedule: Q01DX010 (ip), vehicle: saline
[4] = dose: 6.25 mg/kg/injection, schedule: Q01DX010 (ip), vehicle: saline
[5] = dose: 12.5 mg/kg/injection, schedule: Q01DX010 (ip), vehicle: saline
[6] = dose: 25.0 mg/kg/injection, schedule: Q01DX010 (ip), vehicle: saline
[7] = dose: 18.8 mg/kg/injection, schedule: Q01DX010 (ip), vehicle: saline
[8] = dose: 37.5 mg/kg/injection, schedule: Q01DX010 (ip), vehicle: saline
[9] = dose: 75.0 mg/kg/injection, schedule: Q01DX010 (ip), vehicle: saline
[10] = dose: 150.0 mg/kg/injection, schedule: Q01DX010 (ip), vehicle: saline
[11] = dose: 2.0 mg/kg/injection, schedule: Q01DX010 (ip), vehicle: saline
[12] = dose: 50.0 mg/kg/injection, schedule: Q01DX010 (ip), vehicle: saline
[13] = dose: 5.0 mg/kg/injection, schedule: Q01DX010 (ip), vehicle: saline
[14] = dose: 10.0 mg/kg/injection, schedule: Q01DX010 (ip), vehicle: saline
[15] = dose: 20.0 mg/kg/injection, schedule: Q01DX010 (ip), vehicle: saline
[16] = dose: 40.0 mg/kg/injection, schedule: Q01DX010 (ip), vehicle: saline

Measured: T/C

C1CN1c1nc(N2CC2)nc(N2CC2)n1
inactive: dose: 0.13 mg/kg/injection, schedule: Q01DX010 (ip), vehicle: saline 117 % of control | [1] 121 % of control
active: [2] 196 % of control and 233 % of control

C[C@H]1C(=O)O[C@@H]2CCN3CC=C(COC(=O)[C@](C)(O)[C@@]1(C)O)[C@H]23
inactive: [3] 100 % of control | [4] 94 % of control and 109 % of control | [5] 86 % of control and 118 % of control | [6] 108 % of control and 118 % of control

N=[N+]=CC(=O)OCC(N)C(=O)O (stereo not given)
inactive: [3] 96 % of control | [4] 104 % of control | [6] 96 % of control

Nc1nc(N)c2nc(CNc3ccc(C(=O)NC(CCC(=O)O)C(=O)O)cc3)cnc2n1 (stereo not given)
inactive: dose: 0.03 mg/kg/injection, schedule: Q01DX010 (ip), vehicle: other 103 % of control and 110 % of control | dose: 0.05 mg/kg/injection, schedule: Q01DX010 (ip), vehicle: other 106 % of control | dose: 0.1 mg/kg/injection, schedule: Q01DX010 (ip), vehicle: other 106 % of control and 107 % of control | dose: 0.2 mg/kg/injection, schedule: Q01DX010 (ip), vehicle: other 110 % of control

CN(C)c1nc(N(C)C)nc(N(C)C)n1
inactive: [7] 100 % of control and 108 % of control | [8] 89 % of control and 112 % of control | [9] 96 % of control and 104 % of control | [10] 110 % of control

CC(CCC(C)OS(C)(=O)=O)OS(C)(=O)=O (stereo not given)
inactive: [11] 104 % of control | dose: 4.0 mg/kg/injection, schedule: Q01DX010 (ip), vehicle: saline 100 % of control | dose: 8.0 mg/kg/injection, schedule: Q01DX010 (ip), vehicle: saline 103 % of control and 104 % of control | dose: 16.0 mg/kg/injection, schedule: Q01DX010 (ip), vehicle: saline 117 % of control

CC(=O)NC1=C(N2CC2)C(=O)C(NC(C)=O)=C(N2CC2)C1=O
inactive: [11] 100 % of control
active: [1] 163 % of control | [2] 222 % of control | dose: 1.0 mg/kg/injection, schedule: Q01DX010 (ip), vehicle: saline 300 % of control | dose: 250.0 micrograms/kg/injection, schedule: Q01DX010 (ip), vehicle: saline 195 % of control | dose: 500.0 micrograms/kg/injection, schedule: Q01DX010 (ip), vehicle: saline 195 % of control | dose: 1000.0 micrograms/kg/injection, schedule: Q01DX010 (ip), vehicle: saline 300 % of control

C#CCN(C)Cc1ccccc1
inactive: [12] 102 % of control | dose: 100.0 mg/kg/injection, schedule: Q01DX010 (ip), vehicle: saline 88 % of control | dose: 200.0 mg/kg/injection, schedule: Q01DX010 (ip), vehicle: saline 91 % of control

O=C(O)c1[nH]c(=O)[nH]c(=O)c1F
inactive: dose: 1.25 mg/kg/injection, schedule: Q01DX010 (ip), vehicle: saline 112 % of control | dose: 2.5 mg/kg/injection, schedule: Q01DX010 (ip), vehicle: saline 112 % of control | [13] 120 % of control | [14] 108 % of control

Cc1cc(N(CCCl)CCCl)ccc1N=Nc1ccccc1C(=O)O
104 % of control and 225 % of control: [16]
active: [14] 150 % of control and 183 % of control | [15] 175 % of control

O=c1[nH]cc(F)c(=O)[nH]1
active: [13] 195 % of control | [14] 213 % of control and 227 % of control | [15] 181 % of control and 186 % of control

C=C1C[C@H]2[C@@H]3C=C(C)C4=CC(=O)CC[C@]4(C)[C@H]3CC[C@]2(C)[C@@]1(OC(C)=O)C(C)=O
inactive: dose: 62.5 mg/kg/injection, schedule: Q01DX010 (sc), vehicle: steriod suspending solution 113 % of control | dose: 125.0 mg/kg/injection, schedule: Q01DX010 (sc), vehicle: steriod suspending solution 102 % of control | dose: 250.0 mg/kg/injection, schedule: Q01DX010 (sc), vehicle: steriod suspending solution 89 % of control | dose: 500.0 mg/kg/injection, schedule: Q01DX010 (sc), vehicle: steriod suspending solution 94 % of control

O=c1c(O)cccc2cc(O)c(O)c(O)c12
inactive: [6] 88 % of control | [12] 102 % of control

CS(=O)(=O)OCCCCOS(C)(=O)=O
inactive: [4] 100 % of control | [5] 96 % of control and 123 % of control | [6] 103 % of control | [12] 86 % of control

CS(=O)(=O)OCCCl
active: [10] 220 % of control and 269 % of control
inactive: [7] 100 % of control | [8] 111 % of control | [9] 116 % of control

Cn1c(N)nc2nc[nH]c2c1=S
inactive: [14] 100 % of control | [15] 120 % of control | [16] 104 % of control | dose: 80.0 mg/kg/injection, schedule: Q01DX010 (ip), vehicle: saline 108 % of control
